Source: ChEMBL document CHEMBL5241106, “Discovery of a Dual Tubulin and Poly(ADP-Ribose) Polymerase-1 Inhibitor by Structure-Based Pharmacophore Modeling, Virtual Screening, Molecular Docking, and Biological Evaluation” (J Med Chem, 2021)
Calls of active or inactive are those of the source. No cut-off for these calls is given here.

Assays:
[1] = biological target: Serine/threonine-protein kinase pim-1 (Homo sapiens, UniProt P11309); assay: Inhibition of PIM-1 (unknown origin)
Tubulin (Homo sapiens) [2] = biological target: T1, Tubulin (Homo sapiens) (UniProt P68371+Q9H4B7+P0DPH7+P68366+Q13509+Q71U36+P04350+Q3ZCM7+P07437+P68363+Q9BQE3+Q6PEY2+Q13885+Q9BVA1+Q9BUF5); assay: Inhibition of tubulin polymerization in human MCF-10A cells assessed as destruction of normal microtubule network at 0.5 to 12.5 uM incubated for 48 hrs by immunofluorescence assay; assay type: cell-based; conditions: dose 0.5-12.5 µM
MDA-MB-231 [3] = assay: Induction of apoptosis in human MDA-MB-231 cells assessed as increase in cleaved PARP level at 0.5 to 12.5 uM incubated for 48 hrs by western blot analysis; assay type: functional, cell-based; conditions: dose 0.5-12.5 µM
[4] = Toxicity in BALB/c mouse xenografted with human MDA-MB-231 cells assessed as change in kidney morphological changes at 1 to 5 mg/kg, ip administered every 4 days for 7 times measured at 48 hrs post-last administration by H and E staining based fluorescence microscopic analysis; assay type: organism-based; conditions: in vivo, 720 h, dose 1-5 mg/kg, time 30 day
[5] = biological target: T2, Poly [ADP-ribose] polymerase 1 (Homo sapiens, UniProt P09874); assay: Inhibition of PARP1 (unknown origin) using [3H]NAD+ as substrate incubated for 15 mins by scintillation counting analysis; conditions: read-out: IC50
T2 sequence (P09874 whole entry): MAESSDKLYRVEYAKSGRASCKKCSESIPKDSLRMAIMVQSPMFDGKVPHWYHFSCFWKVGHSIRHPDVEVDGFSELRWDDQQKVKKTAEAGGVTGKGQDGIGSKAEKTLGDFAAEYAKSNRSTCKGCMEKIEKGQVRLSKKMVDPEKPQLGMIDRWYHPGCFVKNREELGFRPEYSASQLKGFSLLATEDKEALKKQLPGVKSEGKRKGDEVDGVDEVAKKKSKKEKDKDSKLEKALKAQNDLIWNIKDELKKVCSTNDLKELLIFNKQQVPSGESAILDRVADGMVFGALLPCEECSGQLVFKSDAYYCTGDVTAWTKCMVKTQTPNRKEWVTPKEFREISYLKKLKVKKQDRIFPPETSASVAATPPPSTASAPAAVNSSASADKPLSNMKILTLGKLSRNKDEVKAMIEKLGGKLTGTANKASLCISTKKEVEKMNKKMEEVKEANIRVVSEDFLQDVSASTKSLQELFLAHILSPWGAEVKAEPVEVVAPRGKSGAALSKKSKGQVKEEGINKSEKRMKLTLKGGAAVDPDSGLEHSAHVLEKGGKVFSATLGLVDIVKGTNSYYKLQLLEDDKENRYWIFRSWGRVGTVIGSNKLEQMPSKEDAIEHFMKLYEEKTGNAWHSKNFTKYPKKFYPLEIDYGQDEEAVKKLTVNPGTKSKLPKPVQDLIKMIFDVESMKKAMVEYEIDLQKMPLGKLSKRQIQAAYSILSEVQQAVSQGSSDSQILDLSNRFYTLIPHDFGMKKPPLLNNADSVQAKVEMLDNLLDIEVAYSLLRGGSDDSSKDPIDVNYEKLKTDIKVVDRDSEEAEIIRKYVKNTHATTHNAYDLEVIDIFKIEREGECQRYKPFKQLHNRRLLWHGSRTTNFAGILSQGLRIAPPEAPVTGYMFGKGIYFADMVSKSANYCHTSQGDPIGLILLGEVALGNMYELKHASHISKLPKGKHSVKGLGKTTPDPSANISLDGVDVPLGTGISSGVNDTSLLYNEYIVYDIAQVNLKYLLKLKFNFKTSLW

MDA-MB-231 [6] = assay: Induction of apoptosis in human MDA-MB-231 cells assessed as early apoptotic cells at 12.5 uM incubated for 48 hrs by Annexin V-FITC/PI staining based flow cytometry (reference value: 1.71%); assay type: functional
MDA-MB-231 [7] = assay: Induction of apoptosis in human MDA-MB-231 cells assessed as early apoptotic cells at 2.5 uM incubated for 48 hrs by Annexin V-FITC/PI staining based flow cytometry (reference value: 1.71%); assay type: functional
[8] = biological target: T2, Poly [ADP-ribose] polymerase 1; assay: Inhibition of PARP-1 in human MDA-MB-231 cells assessed as induction of double strand DNA breaks by measuring increase in gammaH2AX level at 2.5 to 12.5 uM incubated for 48 hrs by western blotting analysis; assay type: cell-based; conditions: dose 2.5-12.5 µM
MDA-MB-231 [9] = assay: Inhibition of colony formation in human MDA-MB-231 cells at 2.5 uM measured after 10 days by crystal violet staining based analysis; assay type: functional; conditions: MDA-MB-231, 240 h, time 10 day
Tubulin = assay: Inhibition of tubulin polymerization (unknown origin) by turbidimetric analysis; assay type: protein-complex assay, Homo sapiens; conditions: read-out: IC50
MDA-MB-231 [10] = assay: Induction of cell cycle arrest in human MDA-MB-231 cells assessed as increase in p-cdc2 expression at 0.5 to 12.5 uM incubated for 48 hrs by Western blot analysis; assay type: functional, cell-based; conditions: dose 0.5-12.5 µM
SK-OV-3 = assay: Cytotoxicity against human SK-OV-3 cells assessed as inhibition of cell growth incubated for 72 hrs by MTT assay; assay type: functional, cell-based; conditions: SK-OV-3, 72 h
Tubulin (Homo sapiens) [11] = biological target: T1, Tubulin (Homo sapiens); assay: Inhibition of tubulin polymerization in human MDA-MB-231 cells assessed as blurred or disappeared nucleus and destruction of normal microtubule network at 12.5 uM incubated for 48 hrs by immunofluorescence assay; assay type: cell-based
[12] = Renal toxicity in BALB/c mouse xenografted with human MDA-MB-231 cells assessed as effect on blood urea nitrogen level at 1 to 5 mg/kg, ip administered every 4 days for 7 times measured at 48 hrs post-last administration; assay type: organism-based; conditions: in vivo, 720 h, dose 1-5 mg/kg, time 30 day
[13] = Toxicity in BALB/c mouse xenografted with human MDA-MB-231 cells assessed as effect on RBC count at 1 to 5 mg/kg, ip administered every 4 days for 7 times measured at 48 hrs post-last administration; assay type: organism-based, Erythrocyte; conditions: in vivo, 720 h, dose 1-5 mg/kg, time 30 day
MDA-MB-231 [14] = assay: Induction of apoptosis in human MDA-MB-231 cells assessed as apoptotic body formation by measuring change in cell morphology with disruption of cell nuclei incubated for 24 hrs by DAPI staining based confocal laser microscopy; assay type: functional; conditions: dose 0.5-12.5 µM
MDA-MB-231 [15] = assay: Induction of cell cycle arrest in human MDA-MB-231 cells assessed as proportion of cells at G2/M phase at 2.5 uM incubated for 48 hrs by propidium iodide staining based flow cytometry (reference value: 9.81%); assay type: functional
HeLa = assay: Cytotoxicity against human HeLa cells assessed as inhibition of cell growth incubated for 72 hrs by MTT assay; assay type: functional, cell-based
CDK4/Cyclin D3 = CDK4/Cyclin D3 (Homo sapiens, UniProt P11802); assay: Inhibition of CDK4/Cyclin D3 (unknown origin); assay type: protein-complex assay
Chain of CDK4/Cyclin D3 (P11802 whole entry): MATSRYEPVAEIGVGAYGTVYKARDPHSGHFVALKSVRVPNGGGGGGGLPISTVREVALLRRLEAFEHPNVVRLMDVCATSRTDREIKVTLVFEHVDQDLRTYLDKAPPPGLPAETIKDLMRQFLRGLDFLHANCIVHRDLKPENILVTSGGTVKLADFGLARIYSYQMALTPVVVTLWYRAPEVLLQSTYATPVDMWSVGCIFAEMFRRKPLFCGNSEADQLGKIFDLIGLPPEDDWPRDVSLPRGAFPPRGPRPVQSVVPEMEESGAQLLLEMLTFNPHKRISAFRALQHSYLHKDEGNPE
Chain of CDK4/Cyclin D3 (P30281 whole entry, further chain): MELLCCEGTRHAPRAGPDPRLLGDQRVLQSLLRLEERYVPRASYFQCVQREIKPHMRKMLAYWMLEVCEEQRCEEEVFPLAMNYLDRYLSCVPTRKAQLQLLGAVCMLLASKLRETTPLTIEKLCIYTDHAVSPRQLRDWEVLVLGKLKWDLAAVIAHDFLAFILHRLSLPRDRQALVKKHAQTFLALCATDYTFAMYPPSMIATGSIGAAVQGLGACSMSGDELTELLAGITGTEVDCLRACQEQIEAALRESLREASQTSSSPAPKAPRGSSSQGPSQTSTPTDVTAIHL

[16] = […] of angiogenesis in human HUVEC cells assessed as inhibition of capillary tube formation at 12.5 uM incubated for 8 hrs by inverted microscopic analysis; assay type: functional; design: scale not given: the % may be the effect or the level left
[17] = Toxicity in BALB/c mouse xenografted with human MDA-MB-231 cells assessed as change in liver morphological changes at 1 to 5 mg/kg, ip administered every 4 days for 7 times measured at 48 hrs post-last administration by H and E staining based fluorescence microscopic analysis; assay type: organism-based; conditions: in vivo, 720 h, dose 1-5 mg/kg, time 30 day
MDA-MB-231 [18] = assay: Anticancer activity against human MDA-MB-231 cells xenografted in BALB/c mouse assessed as reduction in tumor volume at 5 mg/kg, ip administered for every 4 days for 7 times; assay type: functional, organism-based; conditions: time 28.0 day
[19] = Renal toxicity in BALB/c mouse xenografted with human MDA-MB-231 cells assessed as effect on blood creatinine level at 1 to 5 mg/kg, ip administered every 4 days for 7 times measured at 48 hrs post-last administration; assay type: organism-based; conditions: in vivo, 720 h, dose 1-5 mg/kg, time 30 day
MDA-MB-231 [20] = assay: Induction of apoptosis in human MDA-MB-231 cells assessed as late apoptotic cells at 2.5 uM incubated for 48 hrs by Annexin V-FITC/PI staining based flow cytometry (reference value: 5.06%); assay type: functional
[21] = Hepatotoxicity in BALB/c mouse xenografted with human MDA-MB-231 cells assessed as effect on blood AST level at 1 to 5 mg/kg, ip administered every 4 days for 7 times measured at 48 hrs post-last administration; assay type: toxicity, organism-based; conditions: in vivo, 720 h, dose 1-5 mg/kg, time 30 day
MDA-MB-231 [22] = assay: Induction of cell cycle arrest in human MDA-MB-231 cells assessed as decrease in cyclin B1 expression at 0.5 to 12.5 uM incubated for 48 hrs by western blot analysis; assay type: functional, cell-based; conditions: dose 0.5-12.5 µM
[23] = Cytotoxicity against human MCF-10A cells assessed as inhibition of cell growth incubated for 72 hrs by MTT assay; assay type: toxicity, cell-based
MDA-MB-231 [24] = assay: Induction of apoptosis in human MDA-MB-231 cells assessed as viable cells at 12.5 uM incubated for 48 hrs by Annexin V-FITC/PI staining based flow cytometry (reference value: 91.4%); assay type: functional; conditions: read-out: Activity
MDA-MB-231 [25] = assay: Induction of apoptosis in human MDA-MB-231 cells assessed as increase in cleaved caspase-3 level at 0.5 to 12.5 uM incubated for 48 hrs by western blot analysis; assay type: functional, cell-based; conditions: dose 0.5-12.5 µM
MDA-MB-231 [26] = assay: Induction of apoptosis in human MDA-MB-231 cells assessed as viable cells at 0.5 uM incubated for 48 hrs by Annexin V-FITC/PI staining based flow cytometry (reference value: 91.4%); assay type: functional; conditions: read-out: Activity
[27] = Selectivity index, ratio of IC50 for cytotoxicity against human MCF-10A cells to IC50 for cytotoxicity against human MDA-MB-231 cells; assay type: toxicity, cell-based; conditions: MCF-10A cells versus MDA-MB-231 cells, read-out: Ratio IC50
MCF-10A = assay: Induction of apoptosis in human MCF-10A cells at 0.5 to 12.5 uM incubated for 48 hrs by Annexin V-FITC/PI staining based flow cytometry; assay type: toxicity, cell-based; conditions: dose 0.5-12.5 µM

Chain of Serine/threonine-protein kinase pim-1 (P11309 whole entry): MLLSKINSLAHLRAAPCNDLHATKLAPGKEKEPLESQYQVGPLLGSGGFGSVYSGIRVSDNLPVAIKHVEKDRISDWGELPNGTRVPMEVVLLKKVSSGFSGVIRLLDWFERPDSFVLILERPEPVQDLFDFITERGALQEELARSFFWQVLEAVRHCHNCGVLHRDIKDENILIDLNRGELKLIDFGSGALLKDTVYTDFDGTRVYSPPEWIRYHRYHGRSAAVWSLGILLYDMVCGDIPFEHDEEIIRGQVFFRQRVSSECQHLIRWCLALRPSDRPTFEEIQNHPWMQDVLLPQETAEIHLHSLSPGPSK

In the case of `O=c1[nH]c(/C=C/c2cccc(F)c2)nc2ccccc12`, the IC50 [1] is reported as greater than 10000 nM, the inhibition (Tubulin (Homo sapiens) [2]) is reported as “inactive” and the Activity (MDA-MB-231 [3]) is reported as “Active”. The Activity [4] was “Non-Toxic”, the IC50 [5] was 480 nM and the Activity (MDA-MB-231 [6]) was 3.32%. For the same compound, the Activity (MDA-MB-231 [7]) was 2.23%, the inhibition [8] was “Active” and the inhibition at 2.5 µM (MDA-MB-231 [9]) was 100%. For the same compound, the IC50 (Tubulin) was 940 nM, the Activity (MDA-MB-231 [10]) was “Active” and the IC50 (SK-OV-3) was 1700 nM. For the same compound, the inhibition (Tubulin (Homo sapiens) [11]) was “Active”, the Activity [12] was “Non-Toxic” and the Activity [13] was “Non-Toxic”. For the same compound, the Activity (MDA-MB-231 [14]) was “Dose-Dependent Effect”, the Activity (MDA-MB-231 [15]) was 33.56% and the IC50 (HeLa) was 1500 nM. The IC50 (CDK4/Cyclin D3) was greater than 10000 nM, the Activity [16] was 100% and the Activity [17] was “Non-Toxic”. The Activity (MDA-MB-231 [18]) was “Active”, the Activity [19] was “Non-Toxic” and the Activity (MDA-MB-231 [20]) was 6.62%. The Activity [21] was “Non-Toxic”, the Activity (MDA-MB-231 [22]) was “Active” and the IC50 at 72 h [23] was greater than 10000 nM. For the same compound, the viability at 12.5 µM (MDA-MB-231 [24]) was 83.4%, the Activity (MDA-MB-231 [25]) was “Active” and the viability at 0.5 µM (MDA-MB-231 [26]) was 90.6%. For the same compound, the selectivity ratio [27] was greater than 14 and the Activity (MCF-10A) was “Non-Toxic”.
